The target in the test is T1, IL-23α/IL-12β and IL-23R (Homo sapiens, UniProt Q5VWK5).
T1 construct: purchased ACRO ILR-H82F3 (IL-23R); ILB-H52W5 (IL-23α/IL-12β)
T1 sequence (Q5VWK5 24-353 limits assumed): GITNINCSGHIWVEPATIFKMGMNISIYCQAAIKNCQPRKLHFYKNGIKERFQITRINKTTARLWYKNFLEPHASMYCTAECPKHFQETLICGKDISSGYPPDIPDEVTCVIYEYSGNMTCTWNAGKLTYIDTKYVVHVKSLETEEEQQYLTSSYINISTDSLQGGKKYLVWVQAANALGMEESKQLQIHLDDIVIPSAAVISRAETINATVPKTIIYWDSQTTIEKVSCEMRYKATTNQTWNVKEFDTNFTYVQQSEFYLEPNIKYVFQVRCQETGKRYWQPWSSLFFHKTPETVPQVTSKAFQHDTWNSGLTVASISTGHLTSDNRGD
Description: IL-23α/IL-12β and IL-23R binding assay (TR-FRET/HTRF). Conditions: inhibition of the binding of IL-23α/IL-12β to IL-23R, TR-FRET; both proteins 0.3 nM. As for the experimental part:
1. IL-23α/IL-12β and IL-23R binding assay
Compounds were tested for their inhibition on the binding of IL-23α/IL-12β to IL-23R by the TR-FRET method. Solutions of proteins IL-23α/IL-12β (ACRO, Cat# ILB-H52W5) and IL-23R (ACRO, Cat# ILR-H82F3) were prepared in reaction buffer PPI (PerkinElmer, Cat# 61DB10RDF). The final concentrations of IL-23α/IL-12β and IL-23R in the reaction mixture were both 0.3 nM. Positive reference Guselkumab was 3-fold diluted from an initial concentration of 30 nM, with 10 doses. 0.1 µL of the positive reference diluted in the reaction buffer was delivered to a 384-well plate (Grenier, Cat# 784075) by the acoustic liquid delivery technique (Echo 655), and the plate was centrifuged at 1000 rpm for 1 minute. 2.5 µL of IL-23α/IL-12β solution was transferred into the 384-well reaction plate, and the plate was centrifuged at 1000 rpm for 1 minute, and incubated at 25°C for 60 minutes. 2.5 µL of IL-23R solution was transferred into the 384-well reaction plate, and the plate was centrifuged at 1000 rpm for 1 minute. 5 µL of Streptavidin-Tb cryptate and Anti 6HIS-d2 detection mixture was transferred into the 384-well reaction plate, and the plate was centrifuged at 1000 rpm for 1 minute, and incubated at 25°C for 60 minutes. Finally, the HTRF signal (Ratio 665/620 nm) was read with a BMG high-throughput drug screening multifunctional microplate reader. IC50 values were obtained by nonlinear regression curve fitting using GraphPad Prism software.
(In general: TR-FRET usually uses a lanthanide donor and a delayed reading to cut background.)

Starred links: 1 amine or outer side, 2 acyl side, 3 side chain; linkers in the order of their positions; H or OH if unused. Positions of bridges follow the written chain, without caps; N, C: chain ends. Non-standard residues stand in square brackets, D forms with d. Residues, ends and D or L forms follow the SMILES beside them. Groups on a side chain read outwards from the residue. *: point of attachment. Phe(4-OC2H4NH2,2,3-(CH2)3) = NCCOc1ccc(C[C@H](N)C(=O)O)c2c1CCC2; Trp(7-cPr) = N[C@@H](Cc1c[nH]c2c(C3CC3)cccc12)C(=O)O; X4 = COCCOCCOCCOCCOCCOCCOCCOCCOCCOCCOCCOCCOCC(=O)*; Trp(7-Me) = Cc1cccc2c(C[C@H](N)C(=O)O)c[nH]c12; γGlu = O=C(O)[C@H](CCC(=O)[*:2])N[*:1]; 2Nal = N[C@@H](Cc1ccc2ccccc2c1)C(=O)O; X1 = O=C(C(N[*:1])C1(S[*:3])CC1)[*:2]; X3 = C(c1nc(C[*:2])nc(C[*:3])n1)[*:1]; Thp(SO2) = NC1(C(=O)O)CCS(=O)(=O)CC1; mXylylene = c1cc(C[*:1])cc(C[*:2])c1; oXylylene = c1ccc(C[*:2])c(C[*:1])c1; AEF = NCCOc1ccc(C[C@H](N)C(=O)O)cc1; Adipoyl = O=C(CCCCC(=O)[*:2])[*:1]; 3Pal = N[C@@H](Cc1cccnc1)C(=O)O; X5 = COCCOCCOCCOCCOCCOCC(=O)*; Pen = CC(C)(S)[C@H](N)C(=O)O; Thp = NC1(C(=O)O)CCOCC1; AEEA = NCCOCCOCC(=O)O; AEA = NCCOCC(=O)O; Sar = CNCC(=O)O

Consider `COCCOCCOCCOCCOCCOCC(=O)N[C@@H]1C(=O)N[C@@H](Cc2c[nH]cn2)C(=O)N[C@@H]([C@@H](C)O)C(=O)N[C@@H](Cc2c[nH]c3c(C4CC4)cccc23)C(=O)N[C@@H](CCC(N)=O)C(=O)N[C@H](C(=O)N[C@@H](Cc2ccc(OCCN)c3c2CCC3)C(=O)N[C@@H](Cc2ccc3ccccc3c2)C(=O)NC2(C(=O)N[C@@H](CCC(=O)O)C(=O)N[C@@H](CC(N)=O)C(=O)N[C@@H](Cc3cccnc3)C(=O)N(C)CC(N)=O)CCS(=O)(=O)CC2)C(C)(C)SSC1(C)C` [Compound 35] (X5-[Pen]HT[Trp(7-cPr)]Q[Pen][Phe(4-OC2H4NH2,2,3-(CH2)3)][2Nal][Thp(SO2)]EN[3Pal][Sar]-NH2; disulfide 1-6), for which the IC50 (in general, the concentration at which inhibition is half-maximal) was found to be 63 pM. In the case of `CC(=O)N[C@@H]1C(=O)N[C@@H](Cc2c[nH]cn2)C(=O)N[C@@H]([C@@H](C)O)C(=O)N[C@@H](Cc2c[nH]c3c(C4CC4)cccc23)C(=O)N[C@@H](CCCCNC(=O)COCCOCCNC(=O)COCCOCCNC(=O)CC[C@H](NC(=O)CCCCC(=O)O)C(=O)O)C(=O)N[C@H](C(=O)N[C@@H](Cc2ccc(OCCN)c3c2CCC3)C(=O)N[C@@H](Cc2ccc3ccccc3c2)C(=O)NC2(C(=O)N[C@@H](CCC(=O)O)C(=O)N[C@@H](CC(N)=O)C(=O)N[C@@H](Cc3cccnc3)C(=O)N(C)CC(N)=O)CCS(=O)(=O)CC2)C(C)(C)SSC1(C)C` [Compound 49] (Ac-[Pen]HT[Trp(7-cPr)]K([AEEA-AEEA-γGlu-Adipoyl])[Pen][Phe(4-OC2H4NH2,2,3-(CH2)3)][2Nal][Thp(SO2)]EN[3Pal][Sar]-NH2; disulfide 1-6) it was 68 pM; in that of `CC(=O)N[C@H]1CSCc2cccc(c2)CSC[C@@H](C(=O)N[C@@H](Cc2ccc(OCCN)c3c2CCC3)C(=O)N[C@@H](Cc2ccc3ccccc3c2)C(=O)NC2(C(=O)N[C@@H](CCC(=O)O)C(=O)N[C@@H](CC(N)=O)C(=O)N[C@@H](Cc3cccnc3)C(=O)N(C)CC(N)=O)CCS(=O)(=O)CC2)NC(=O)[C@H](CCC(N)=O)NC(=O)[C@H](Cc2c[nH]c3c(C)cccc23)NC(=O)[C@H]([C@@H](C)O)NC(=O)[C@H](Cc2c[nH]cn2)NC1=O` [Compound 30] (Ac-CHT[Trp(7-Me)]QC[Phe(4-OC2H4NH2,2,3-(CH2)3)][2Nal][Thp(SO2)]EN[3Pal][Sar]-NH2; linker 1-6 via mXylylene), 460 pM. `CC(=O)NCCCC[C@@H]1NC(=O)[C@H](Cc2c[nH]c3c(C)cccc23)NC(=O)[C@H]([C@@H](C)O)NC(=O)[C@H](CC(N)=O)NC(=O)C(NC(C)=O)C2(CC2)SSC(C)(C)[C@@H](C(=O)N[C@@H](Cc2ccc(OCCN)cc2)C(=O)N[C@@H](Cc2ccc3ccccc3c2)C(=O)NC2(C(=O)N[C@@H](CCC(=O)O)C(=O)N[C@@H](CC(N)=O)C(=O)N[C@@H](Cc3cccnc3)C(=O)N(C)CC(N)=O)CCOCC2)NC1=O` (stereo partly drawn) [Compound 37] (Ac-[X1]NT[Trp(7-Me)]K(Ac)[Pen][AEF][2Nal][Thp]EN[3Pal][Sar]-NH2; disulfide 1-6 (inferred)) displayed an IC50 of 50 pM. The result for `CC(=O)N[C@H]1CSCc2nc3nc(n2)CSC[C@@H](C(=O)N[C@@H](CC(N)=O)C(=O)N[C@@H](Cc2cccnc2)C(=O)N(C)CC(N)=O)NC(=O)C2(CCS(=O)(=O)CC2)NC(=O)[C@H](Cc2ccc4ccccc4c2)NC(=O)[C@H](Cc2ccc(OCCN)c4c2CCC4)NC(=O)[C@H](CSC3)NC(=O)[C@H](CCC(N)=O)NC(=O)[C@H](Cc2c[nH]c3c(C)cccc23)NC(=O)[C@H]([C@@H](C)O)NC(=O)[C@H](Cc2c[nH]cn2)NC1=O` [Compound 33] (Ac-CHT[Trp(7-Me)]QC[Phe(4-OC2H4NH2,2,3-(CH2)3)][2Nal][Thp(SO2)]CN[3Pal][Sar]-NH2; linker 1-6-10 via X3) reads 395 pM; that for `CC(=O)NCCCC[C@@H]1NC(=O)[C@H](Cc2c[nH]c3c(C)cccc23)NC(=O)[C@H]([C@@H](C)O)NC(=O)[C@H](Cc2c[nH]cn2)NC(=O)[C@@H](NC(C)=O)CCCC[C@@H](C(=O)N[C@@H](Cc2ccc(OCCN)c3c2CCC3)C(=O)N[C@@H](Cc2ccc3ccccc3c2)C(=O)NC2(C(=O)N[C@@H](CCC(=O)O)C(=O)N[C@@H](CC(N)=O)C(=O)N[C@@H](Cc3cccnc3)C(=O)N(C)CC(N)=O)CCOCC2)NC1=O` [Compound 52], 101 pM. The result for `CC(=O)NC1C(=O)N[C@@H](Cc2c[nH]cn2)C(=O)N[C@@H]([C@@H](C)O)C(=O)N[C@@H](Cc2c[nH]c3c(C4CC4)cccc23)C(=O)N[C@@H](CCC(N)=O)C(=O)NC(C(=O)N[C@@H](Cc2ccc(OCCN)c3c2CCC3)C(=O)N[C@@H](Cc2ccc3ccccc3c2)C(=O)NC2(C(=O)N[C@@H](CCC(=O)O)C(=O)N[C@@H](CC(N)=O)C(=O)N[C@@H](Cc3cccnc3)C(=O)N(C)CC(N)=O)CCS(=O)(=O)CC2)C2(CC2)SSC12CC2` (stereo partly drawn) [Compound 54] (Ac-[X1]HT[Trp(7-cPr)]Q[X1][Phe(4-OC2H4NH2,2,3-(CH2)3)][2Nal][Thp(SO2)]EN[3Pal][Sar]-NH2; disulfide 1-6) reads 91 pM; that for `CC(=O)N[C@H]1CSCc2ccccc2CSC[C@@H](C(=O)N[C@@H](Cc2ccc(OCCN)c3c2CCC3)C(=O)N[C@@H](Cc2ccc3ccccc3c2)C(=O)NC2(C(=O)N[C@@H](CCC(=O)O)C(=O)N[C@@H](CC(N)=O)C(=O)N[C@@H](Cc3cccnc3)C(=O)N(C)CC(N)=O)CCS(=O)(=O)CC2)NC(=O)[C@H](CCC(N)=O)NC(=O)[C@H](Cc2c[nH]c3c(C)cccc23)NC(=O)[C@H]([C@@H](C)O)NC(=O)[C@H](Cc2c[nH]cn2)NC1=O` [Compound 31] (Ac-CHT[Trp(7-Me)]QC[Phe(4-OC2H4NH2,2,3-(CH2)3)][2Nal][Thp(SO2)]EN[3Pal][Sar]-NH2; linker 1-6 via oXylylene), 258 pM; that for `COCCOCCOCCOCCOCCOCCOCCOCCOCCOCCOCCOCCOCC(=O)N[C@@H]1C(=O)N[C@@H](Cc2c[nH]cn2)C(=O)N[C@@H]([C@@H](C)O)C(=O)N[C@@H](Cc2c[nH]c3c(C4CC4)cccc23)C(=O)N[C@@H](CCC(N)=O)C(=O)N[C@H](C(=O)N[C@@H](Cc2ccc(OCCN)c3c2CCC3)C(=O)N[C@@H](Cc2ccc3ccccc3c2)C(=O)NC2(C(=O)N[C@@H](CCC(=O)O)C(=O)N[C@@H](CC(N)=O)C(=O)N[C@@H](Cc3cccnc3)C(=O)N(C)CC(N)=O)CCS(=O)(=O)CC2)C(C)(C)SSC1(C)C` [Compound 46] (X4-[Pen]HT[Trp(7-cPr)]Q[Pen][Phe(4-OC2H4NH2,2,3-(CH2)3)][2Nal][Thp(SO2)]EN[3Pal][Sar]-NH2; disulfide 1-6), 95 pM. The result for `CC(=O)NCCCC[C@@H]1NC(=O)[C@H](Cc2c[nH]c3c(C)cccc23)NC(=O)[C@H]([C@@H](C)O)NC(=O)[C@H](Cc2c[nH]cn2)NC(=O)[C@H]2NC(=O)COCCNC(=O)CC[C@@H](C(=O)N[C@@H](CC(N)=O)C(=O)N[C@@H](Cc3cccnc3)C(=O)N(C)CC(N)=O)NC(=O)C3(CCOCC3)NC(=O)[C@H](Cc3ccc4ccccc4c3)NC(=O)[C@H](Cc3ccc(OCCN)cc3)NC(=O)[C@@H](NC1=O)C(C)(C)SSC2(C)C` [Compound 38] ([AEA][Pen]HT[Trp(7-Me)]K(Ac)[Pen][AEF][2Nal][Thp]EN[3Pal][Sar]-NH2; disulfide 2-7 (inferred); lactam N-11 (inferred)) reads 212 pM; that for `CC(=O)NC1C(=O)N[C@@H](Cc2c[nH]cn2)C(=O)N[C@@H]([C@@H](C)O)C(=O)N[C@@H](Cc2c[nH]c3c(C)cccc23)C(=O)N[C@@H](CCC(N)=O)C(=O)NC(C(=O)N[C@@H](Cc2ccc(OCCN)c3c2CCC3)C(=O)N[C@@H](Cc2ccc3ccccc3c2)C(=O)NC2(C(=O)N[C@@H](CCC(=O)O)C(=O)N[C@@H](CC(N)=O)C(=O)N[C@@H](Cc3cccnc3)C(=O)N(C)CC(N)=O)CCS(=O)(=O)CC2)C2(CC2)SSC12CC2` (stereo partly drawn) [Compound 55] (Ac-[X1]HT[Trp(7-Me)]Q[X1][Phe(4-OC2H4NH2,2,3-(CH2)3)][2Nal][Thp(SO2)]EN[3Pal][Sar]-NH2; disulfide 1-6), 68 pM.

The molecule `CC(=O)N[C@@H](CCC(=O)NCCOCCOCC(=O)NCCOCCOCC(=O)N[C@@H]1C(=O)N[C@@H](Cc2c[nH]cn2)C(=O)N[C@@H]([C@@H](C)O)C(=O)N[C@@H](Cc2c[nH]c3c(C4CC4)cccc23)C(=O)N[C@@H](CCC(N)=O)C(=O)N[C@H](C(=O)N[C@@H](Cc2ccc(OCCN)c3c2CCC3)C(=O)N[C@@H](Cc2ccc3ccccc3c2)C(=O)NC2(C(=O)N[C@@H](CCC(=O)O)C(=O)N[C@@H](CC(N)=O)C(=O)N[C@@H](Cc3cccnc3)C(=O)N(C)CC(N)=O)CCS(=O)(=O)CC2)C(C)(C)SSC1(C)C)C(=O)O` [Compound 36] (Ac-[γGlu][AEEA][AEEA][Pen]HT[Trp(7-cPr)]Q[Pen][Phe(4-OC2H4NH2,2,3-(CH2)3)][2Nal][Thp(SO2)]EN[3Pal][Sar]-NH2; disulfide 4-9) yielded an IC50 of 42 pM.

Source of the values: EP4729529A1, “PREPARATION OF PEPTIDE INHIBITOR OF INTERLEUKIN-23 RECEPTOR AND USE THEREOF” (Xizang Haisco Pharmaceutical Co., Ltd., priority 2023, dated 2024).
